According to PMC10088020, “AA16 Oxidoreductases Boost Cellulose-Active AA9 Lytic Polysaccharide Monooxygenases from Myceliophthora thermophila” (ACS Catalysis, 2023):

What was measured:
MtAA16A [1] = biological target: T1, MtAA16A (Thermothelomyces thermophilus, UniProt G2QH80); test: H2O2-driven oxidation to coerulignone ([…],6-DMP assay); type: biochemical; conditions: co-substrate H2O2; Cu(II)-saturated enzyme
T1 construct: gene MYCTH_2306267; mature secreted protein, homologously produced in M. thermophila C1; signal peptide removed; N-terminal His methylated; Cu(II)-saturated
T1 sequence (G2QH80 entry or part of it): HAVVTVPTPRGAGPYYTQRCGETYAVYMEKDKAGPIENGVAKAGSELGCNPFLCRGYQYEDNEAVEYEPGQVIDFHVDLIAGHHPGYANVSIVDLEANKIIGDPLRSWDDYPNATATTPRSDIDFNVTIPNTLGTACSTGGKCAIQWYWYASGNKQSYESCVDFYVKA

MtAA16A [2] = biological target: T1, MtAA16A; test: thermal shift (nDSF); conditions: may reflect reduction of the active-site copper rather than binding (authors)
AnAA16A = biological target: T2, AnAA16A (Aspergillus nidulans, UniProt Q5BFA2); test: H2O2 production, ferric-xylenol orange assay; type: biochemical; conditions: 1 mM Pyg as reductant, O2; pH 5.0, 30 °C
T2 construct: gene ANIA_00778; catalytic domain; C-terminal extension (residues 199-306) removed, native signal peptide used for secretion; C-terminal His-tag cut with TEV; Pichia pastoris X-33; N-terminal His not methylated; Cu(II)-saturated
T2 sequence (Q5BFA2 20-198): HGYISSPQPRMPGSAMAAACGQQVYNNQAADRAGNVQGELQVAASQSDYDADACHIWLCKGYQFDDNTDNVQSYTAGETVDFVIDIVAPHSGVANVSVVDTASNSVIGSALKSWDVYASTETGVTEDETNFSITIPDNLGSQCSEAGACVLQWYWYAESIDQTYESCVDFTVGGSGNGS

Structure (SMILES) | H2O2-driven oxidation to coerulignone (2,6-DMP assay) (MtAA16A [1]) | thermal stabilization (MtAA16A [2]) | H2O2 production, ferric-xylenol orange assay (AnAA16A)
COc1cccc(OC)c1O [syringol, 2,6-dimethoxyphenol] | MtAA16A is a copper-dependent enzyme able to oxidize syringol in the presence of H2O2 | syringol induced significant thermal stabilization (Figure S8), which is consistent with binding | –
Oc1cccc(O)c1O [pyrogallol] | – | – | we observed accumulation of H2O2 in MtAA16A-Pyg and AnAA16A-Pyg samples
